{
  "source": "paper PMC4381582",
  "about": "“RNA interference screening identifies a novel role for PCTK1/CDK16 in medulloblastoma with c-Myc amplification” (Oncotarget, 2014)",
  "target": "T1, PCTAIRE1 (PCTK1/CDK16) (Homo sapiens, UniProt Q00536)",
  "T1 construct": "recombinant GST-fusion or His-tagged protein from human cDNA, expressed in Sf9 insect cells or E. coli; with CycY (cyclin Y)",
  "T1 sequence (Q00536 whole entry, the tested form may be a part)": "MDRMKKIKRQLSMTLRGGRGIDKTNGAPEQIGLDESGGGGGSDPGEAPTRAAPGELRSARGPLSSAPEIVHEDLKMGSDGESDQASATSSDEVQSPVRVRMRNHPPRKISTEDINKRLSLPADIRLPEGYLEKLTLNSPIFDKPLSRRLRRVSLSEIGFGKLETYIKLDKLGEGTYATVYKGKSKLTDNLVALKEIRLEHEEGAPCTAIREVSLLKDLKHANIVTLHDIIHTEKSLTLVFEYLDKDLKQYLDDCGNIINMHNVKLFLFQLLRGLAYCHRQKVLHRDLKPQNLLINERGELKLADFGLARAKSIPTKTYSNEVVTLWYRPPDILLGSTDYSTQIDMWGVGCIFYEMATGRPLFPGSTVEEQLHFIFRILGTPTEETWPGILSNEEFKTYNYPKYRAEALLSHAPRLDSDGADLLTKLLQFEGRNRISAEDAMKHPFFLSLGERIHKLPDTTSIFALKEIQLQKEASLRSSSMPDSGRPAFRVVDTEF",
  "T1 sequence (Q8ND76 2-341 partner)": "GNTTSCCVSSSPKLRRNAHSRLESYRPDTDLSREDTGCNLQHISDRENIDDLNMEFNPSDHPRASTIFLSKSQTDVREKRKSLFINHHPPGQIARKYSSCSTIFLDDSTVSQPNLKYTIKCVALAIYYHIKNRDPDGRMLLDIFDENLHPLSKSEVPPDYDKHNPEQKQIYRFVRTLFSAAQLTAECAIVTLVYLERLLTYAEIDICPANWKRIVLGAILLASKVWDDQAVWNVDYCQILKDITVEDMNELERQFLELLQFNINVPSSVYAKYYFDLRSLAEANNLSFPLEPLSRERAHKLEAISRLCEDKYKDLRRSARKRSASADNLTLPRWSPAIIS",
  "assay": "radiometric protein kinase assay ([…]PanQinase) with GSK3([…]-27) peptide substrate",
  "format": "biochemical",
  "data": [
    {"smiles": "O=C1Nc2ccccc2/C1=C1/Nc2ccccc2/C1=N\\OCCC(O)CO", "note": "(stereo not shown) [indirubin E804]", "values": [
      {"measurement": "IC50", "result": 53, "unit": "nM"}
    ]}
  ]
}
